Measurements: patent publication US20260151391A1, “TREATMENT OF MITOCHONDRIAL DISEASES WITH sGC STIMULATORS” (Tisento Therapeutics Inc., priority 2022, published 2026)
Where two headings read alike, the source gives them in different places.

Tests used:
sGC enzyme = test: cGMP GloSensor cell-based assay, 384-well format; parameters: species or system human; settings: HEK293 GloSensor 40F cGMP cells, 10 μM DETA-NONOate; geometrical mean; I-20 and I-14: average of free acid and sodium salt; read-out: Glo EC50
Source text: Human embryonic kidney cells (HEK293) cells expressing GloSensor™ 40F cGMP (Part No: CS182801, Promega) were used to evaluate the activity of test compounds. The luminescent biosensors (engineered luciferase) that were incorporated into these cells detect cGMP formed by the compounds stimulating the sGC enzyme and emit luminescence.
cGMP GloSensor cells were maintained in Dulbecco's Modification of Eagle's Medium (DMEM) supplemented with fetal bovine serum (FBS, 10% final) and hygromycine (200 ug/ml). The day before assay, cells were plated in DMEM with 10% FBS in a 50 μL volume at a density of 1.5×10^4 cells/well in a poly-D-lysine coated 384-well flat white-bottom plate (Corning Cat No 35661). […] Test compounds and Diethylenetriamine NONOate (DETA-NONOate) was diluted to 3 mM (20×) in serum-free CO2 independent medium and serially diluted at 4× dilutions to create 5× dose curve from which 10 ul was added to the wells (x μM concentration for test compound solution and 10 μM concentration for DETA-NONOate solution; wherein x is one of the following final concentrations: 30 μM, 7.5 μM, 1.9 μM, 469 nM, 117 nM, 29.3 nM, 7.3 nM, 1.83 nM, 0.46 nM, 0.11 nM, 0.03 nM) For the kinetics studies, luminescense was measured right away for 0.2 sec per well with Envision (Perkin Elmer). […]
Concentration response data were analyzed using a 4-parameter fit (log (agonist) vs. response-variable slope). […]

[1] = Non-human primate CSF pharmacokinetics (Study B), cisterna magna versus lumbar sampling; assay type: in vivo, Macaca fascicularis; settings: for Kp uu at 3 h / Kp uu at 24 h: female, Cynomolgus macaque, cynomolgus monkey, read-out: geomean ratio of CSF concentration to unbound concentration in plasma (Kp,uu)
Source text: The objective of this study was to investigate the pharmacokinetics of Compound 1-14 after administration of a single […] bolus or oral gavage dose to cynomolgus monkeys on Day 1 and to evaluate differences in pharmacokinetic values when comparing CSF collected at the cisterna magna (as in Example 10A) versus lumbar locations. [table] • Species: Macaca fascicularis • Strain: Cynomolgus macaque • Number of Females: 4 • Age: Adult • Weight: 2.5-4 kg Single doses of Compound I-14 were administered intravenously as a bolus injection of a solution at 0.15 mg/kg and orally by gavage as a suspension at 0.5 mg/kg to a group of four female cynomolgus monkeys in a crossover design. Plasma samples were collected at 0.25 (15 min), 0.5 (30 min), 1, 2, 3, 6, 8, 12, 24, 32, and 48 h following the IV and PO doses. CSF samples were collected at 3 and 24 h for all animals from the cisterna magna in groups 1 and 2 and the lumbar from groups 3 and 4. Sample extracts were prepared by protein precipitation and Compound I-14 concentrations were measured using LC-MS/MS. Pharmacokinetic parameters were calculated.

[2] = CSF (cisterna magna) / unbound plasma, IV bolus 0.15 mg/kg, cisterna magna sampling
[3] = CSF (cisterna magna) / unbound plasma, oral gavage 0.5 mg/kg, cisterna magna sampling
[4] = CSF (lumbar) / unbound plasma, IV bolus 0.15 mg/kg, lumbar sampling
[5] = CSF (lumbar) / unbound plasma, oral gavage 0.5 mg/kg, lumbar sampling

- EC50 (sGC enzyme): ≤ 100 nM
- presence of compound in CSF ([1]; IV and PO administration, cisterna magna and lumbar sampling): observed in the CSF at 3 and 24 hours
- Kp uu at 3 h [1, 2]: 2 to 3
- Kp uu at 3 h [1, 3]: 2 to 3
- Kp uu at 24 h [1, 2]: 1 to 2
- Kp uu at 24 h [1, 3]: 2 to 3
- Kp uu at 3 h [1, 4]: 2 to 3
- Kp uu at 3 h [1, 5]: 2 to 3
- Kp uu at 24 h [1, 4]: 1 to 2
- Kp uu at 24 h [1, 5]: 2 to 3
Compound: Cc1cc(F)c(Cc2nc(-c3ncc(F)c(O)n3)cn3ccnc23)cc1F [Compound I-14, 5-fluoro-2-(8-(2,5-difluoro-4-methylbenzyl)imidazo[1,2-a]pyrazin-6-yl)pyrimidin-4-ol]
